Data: paper PMC10574351, “First-Row Transition Metal Complexes Incorporating the 2-(2′-pyridyl)quinoxaline Ligand (pqx), as Potent Inflammatory Mediators: Cytotoxic Properties and Biological Activities against the Platelet-Activating Factor (PAF) and Thrombin” (Molecules, 2023)

Assays:
[1] = system: PAF-induced aggregation in washed rabbit platelets (WRPs); test: Inhibition of PAF-induced aggregation in washed rabbit platelets; type: cell-based; conditions: for IC50: washed rabbit platelets, mean ± SD, read-out: IC50 (μM) towards PAF in WRPs
Experimental: The biological experiments of PAF-induced platelet aggregation as well as the evaluation of the inhibitory effect of its synthetic compounds were performed according to thoroughly described protocols. […] Briefly, in order to obtain the washed rabbit platelets (WRPs), platelet-rich plasma was washed on Ficoll–Paque cushions and adjusted to […] platelets/mL of Tyrode’s buffer, pH 7.2. The dilution of PAF was prepared using pyrogen-free 0.15 M NaCl containing 2.5 mg/mL of crystallized bovine serum albumin, required for dispersion of PAF. The compounds under investigation were firstly dissolved in the appropriate solvent that is: DMSO for pqx (0.010 M), H2O for CrCl3 × 3H2O (0.016 M), H2O for MnCl2 × 4H2O (0.004 M), DMSO-EtOH (4/1, v/v)) for FeCl2 × 4H2O (0.014 M), H2O for CoCl2 × 6H2O (0.010 M), H2O for NiCl2 × 6H2O (0.010 M), H2O for CuCl2 × 2H2O (0.008 M), H2O for ZnCl2 (0.013 M), DMSO for 1 (0.017 M), DMSO for 2 (0.010 M0, DMSO for 3 (0.004 M), DMSO for 4 (0.002 M), DMSO for 5 (0.003 M), DMSO-EtOH-H2O (25/1/1, v/v)) for 6 (0.006 M), DMSO for 7 (0.002 M) and aliquots of these solutions were then added in solutions (2.5 mg BSA/mL) of saline.
The experiment on the inhibitory effect of each compound of interest against the washed rabbit platelets (WRPs) aggregation was carried out as per the already described method. The platelets were from male New Zealand white rabbits (about 20), individually housed in stainless steel cages in an air-conditioned room (19 ± 1 °C, 55 ± 5% humidity on a 12/12 h artificial light/dark cycle). Blood samples were drawn from the main ear artery. Microliters of PAF in a final concentration of about 10^–10 M were added to the cuvette of the aggregometer, and the height of the platelet aggregation was monitored. The platelet aggregation induced by PAF, or thrombin was measured before (considered as 0% inhibition) and after the addition of various concentrations of the examined sample, creating a linear curve of percentage inhibition (ranging from 0 to 100%) versus different concentrations of the sample. From this curve, the concentration of the sample that inhibited 50% PAF-induced aggregation was calculated, and this value was defined as IC50 (Inhibitory concentration for 50% Inhibition). Dithiothreitol-insensitive PAF choline phosphotransferase, lyso-PAF:acetyl-CoA acetyltransferase and PAF-acetylhydrolase activity assays were performed on the homogenates of rabbit leukocytes while the activity of lipoprotein-associated phospholipase A2 was assessed on plasma as previously described. The experiments were performed in a model 400 vs. aggregometer of Chrono-Log (Havertown, PA, USA) coupled to a Chrono-Log recorder at 37 °C with constant stirring at 1200 rpm. The separation of platelets was performed with centrifugations in a 3L-R Heraeus Labofuge (Hvanau, Germany), a 400R Heraeus Labofuge and an RC-5B Sorvall (Newtown, CT, USA) refrigerated super speed centrifuge. Bovine serum albumin (BSA), PAF and analytical solvents for the biological assays were purchased from Sigma. […] The measurements were performed in duplicates for each sample concentration in three different WRP preparations, in order to ensure reproducibility. All experiments were also followed by appropriate control tests of the solvent used (saline solution of BSA, DMSO aliquots in a saline solution of BSA-2.5 mg BSA/mL saline- or just in saline), in WRPs. In the aggregometer cuvette (250 to 500 μL) the overall amount of added DMSO, contained in the solution of the sample under study, is not higher than 2–3 μL. All results were expressed as mean ± standard deviation (SD). The t-test was employed to assess differences among the IC50 values of each metal complex against either the PAF- or thrombin-induced aggregation. Differences were statistically significant when the statistical p-value was smaller than 0.05.

[2] = system: HeLa cells (cervical cancer cells); test: MTT cell viability assay, HeLa; type: cell-based, human; conditions: for IC50: 48 h exposure, mean ± SD; for cytotoxic effect in HeLa: 48 h, concentrations up to 100 μΜ
Experimental: In this report, cell viability tests were conducted in HEK293T and HeLa cancer cells by means of the colorimetric 3-(4,5-dimethylthiazol-2-yl)-2,5-diphenyl tetrazolium bromide (MTT) assay after exposure for 48 h. A HeLa cancer cell line was selected since it is widely used in cytotoxicity studies. For all complexes, a 10 mM stock solution in DMSO (H2O for cisplatin) was prepared and diluted appropriately to reach the final concentration reported in the Materials and Methods. The non-cancerous HEK293T cell line was used for comparison. The IC50 values of the first-row metal complexes, the pqx ligand and cisplatin, presented herein were calculated using a dose-response model, which was obtained from sigmoidal fitting of dose-response curves.
The HEK293T cell line (immortalized human embryonic kidney cells) was obtained from the Biomedical Research Foundation Academy of Athens (BRFAA), Athens, Greece and the HeLa cell line (cervical cancer cells) was obtained from the National Centre For Scientific Research Demokritos (NCSR Demokritos), Athens, Greece.
Pqx metal complexes were diluted in stock solutions of 10 mM in dimethyl sulfoxide (DMSO). A similar concentration of cisplatin dissolved in H2O was used. HEK293T and HeLa cells were cultured in Dulbecco’s modified Eagle’s medium (DMEM) with high glucose (Biosera, Nuaille, France) supplemented with 10% fetal bovine serum at 37 °C and 5% CO2. Cells were seeded in sterile tissue culture 96-well plates (SPL Life Science, Pochon, Republic of Korea) at a density of 3000 cells per well. After 24 h, the medium was removed and replaced with fresh media containing various concentrations (0.01 μΜ, 0.1 μΜ, 1 μΜ, 10 μΜ, 25 μΜ, 40 μΜ, 55 μΜ, 70 μΜ, 85 μΜ and 100 μΜ) of the compounds to be tested and was further incubated for 48 h at 37 °C. Dimethyl sulfoxide (DMSO) was used as a vehicle at ≤1%. To measure cytotoxicity, a culture medium containing the compounds (or DMSO) was removed, and 100 μL of 0.5 mg/mL MTT reagent (Applichem, Darmstadt, Germany) diluted in DMEM was added to the cells for 3 h at 37 °C. After 3 h incubation in identical conditions, MTT was removed and 200 μL of DMSO was added. Absorbance values of formazan were measured at 540 nm using a BioTek Synergy H1 microplate reader (Agilent, Santa Clara, CA, USA). All compounds were tested in triplicate. The results were statistically analyzed using the nonlinear regression by GraphPad PRISM (Version 9).

Compound CS(C)=O.[Cl][Cu][Cl].c1ccc(-c2cnc3ccccc3n2)nc1 [Complex 3, [Cu(pqx)Cl2(DMSO)]] has an IC50 [1] of 10.6 ± 1.4 µM and an IC50 [2] of 27.2 ± 1.23 µM.
With [Fe(pqx)Cl2]2 [Complex 6] the IC50 [1] was 1.79 ± 0.12 µM and the IC50 [2] was 70.9 ± 2.5 µM.
In the case of [Co(pqx)Cl2(DMF)] [Complex 2], the IC50 [1] is reported as 4.1 ± 0.6 µM, the “cytotoxic effect in HeLa” value [2] is reported as “only slightly affected” and the IC50 [2] is reported as 89.1 ± 7.77 µM.
With mer-[Cr(pqx)Cl3(H2O)] [Complex 1] the “fold more potent against PAF as opposed to thrombin-induced aggregation” value ([1]; ratio of thrombin and PAF IC50) was roughly 12 fold, the IC50 [1] was 4.5 ± 0.9 µM and the “cytotoxic effect in HeLa” value [2] was “only slightly affected”. For the same compound, the IC50 [2] was 82.8 ± 3.12 µM.
In the case of [Mn(pqx)(H2O)2Cl2]2 [Complex 5], the IC50 [1] is reported as 39 ± 6 µM and the “cytotoxic effect in HeLa” value [2] is reported as “practically non-cytotoxic”.
With [Ni(pqx)Cl2]2 [Complex 7] the IC50 [1] was 6.83 ± 0.42 µM, the “cytotoxic effect in HeLa” value [2] was “only slightly affected” and the IC50 [2] was 82.3 ± 9.49 µM.
[Cl][Zn][Cl].c1ccc(-c2cnc3ccccc3n2)nc1 [Complex 4, [Zn(pqx)Cl2]] gave an IC50 [1] of 3.3 ± 0.3 µM and an IC50 [2] of 77.8 ± 6.51 µM.
